Experimental data from PMC7545998, “A snake toxin as a theranostic agent for the type 2 vasopressin receptor” (Theranostics, 2020).

Test system: Sprague-Dawley rats
Experiment: Pharmacodynamics: diuresis and urine osmolality after single i.p. injection
Type: in vivo, rat
Parameters: k value of diuresis over time, first phase / k value of diuresis over time, second phase: unit not given here
Details: for maximal diuresis: between first and second h post-injection; for half-life of diuresis decrease: mono-exponential
Method: Diuresis was maximal between the first and second h post-injection (pi), with volumes of 29.5, 45.6, 70.9, 67.6 and 79.1 mL/kg/h for the doses of 3, 10, 30, 100 and 356 nmol/kg, respectively (Figure 3C). […] For the highest dose of 356 nmol/kg, the diuresis decreased quickly during the first 4 h and then lasted for four days.
Sprague-Dawley rats are aged between 6 and 12 weeks, between 237 g and 545 g and were use up to 3 times. […] Urine was collected at various times, and centrifuged for 30 min at 20,800 g. Urine osmolality was determined with an osmometer (Knauer, Berlin, Germany). For the pharmacokinetic experiments, a catheter was implanted in the rat jugular vein five days before the experiment. Blood samples of 400 μl were taken at various times under heparin conditions. Blood was centrifuged at 2000 g for 5 min at 4 °C and plasma was frozen at -20 °C.
Sample preparation is described in Table S1. […] The mobile phase consisted of 0.1% formic acid in water (A) and 0.1% formic acid in acetonitrile (B) running in a gradient mode from B 2% to B 100% in 3 min. […] The mass spectrometer was operated in positive ESI and MRM mode. […] A model was selected based on the extravascular (i.p.) route of administration. For the i.p. route, concentration at time zero was assumed to be zero. For each rat, the first concentration below the LLOQ was set at LLOQ/2 for calculation of PK parameters. The area under the plasma concentration versus time curve (AUC) was calculated using the linear trapezoidal method (linear interpolation). When appropriate, the terminal elimination phase of the PK profile was estimated based on the best fit (r^2) using at least the last six observed concentrations. […] The same approach was used to model diuresis over time and two k values were obtained as 0.37774 and 0.02326. Lastly, the PK/PD correlation was achieved after calculating concentrations and diuresis volumes over time based on the equation y = A0*e^-kt where A0 was the computed concentration or diuresis volume at the origin of each phase.

[1] = 356 nmol/kg i.p., bi-exponential analysis
[2] = single i.p. 1 nmol/kg, 0-24 h, n=6
[3] = single i.p. 3 nmol/kg, 0-24 h, n=6
[4] = single i.p. 3 nmol/kg, 24 - 48 h, n=6
[5] = single i.p. 10 nmol/kg, 0-24 h, n=11
[6] = single i.p. 10 nmol/kg, 24 - 48 h, n=11
[7] = single i.p. 30 nmol/kg, 0-24 h, n=11
[8] = single i.p. 30 nmol/kg, 24 - 48 h, n=11
[9] = single i.p. 100 nmol/kg, 0-24 h, n=12
[10] = single i.p. 100 nmol/kg, 24 - 48 h, n=12
[11] = single i.p. 356 nmol/kg, 0-24 h, n=17
[12] = single i.p. 356 nmol/kg, 24 - 48 h, n=17
[13] = single i.p. 356 nmol/kg, 72 h (24-h period), n=12
[14] = single i.p. 356 nmol/kg, 96 h (24-h period), n=12

mambaquaretin [MQ1]
maximal diuresis (3 nmol/kg i.p.): 0.492 mL/min/kg
half-life of diuresis decrease (3 nmol/kg i.p.): 3.7 h
maximal diuresis (10 nmol/kg i.p.): 0.76 mL/min/kg
half-life of diuresis decrease (10 nmol/kg i.p.): 2.4 h
maximal diuresis (30 nmol/kg i.p.): 1.18 mL/min/kg
half-life of diuresis decrease (30 nmol/kg i.p.): 2.4 h
maximal diuresis (100 nmol/kg i.p.): 1.13 mL/min/kg
half-life of diuresis decrease (100 nmol/kg i.p.): 1.2 h
maximal diuresis (356 nmol/kg i.p.): 1.32 mL/min/kg
fast half-life (T1/2α) of diuresis [1]: 1.2 h
slow half-life (T1/2β) of diuresis [1]: 27.3 h
k value of diuresis over time, first phase (356 nmol/kg i.p., modelled): 0.3777
k value of diuresis over time, second phase (356 nmol/kg i.p., modelled): 0.02326
diuresis and osmolality compared to control (single 1 nmol/kg i.p.): statistically unchanged
Diuresis Average [2]: 0.039 mL/min/kg
Excretion Average [2]: 2206 µosm/h/kg
Osmolarity Averag [2]: 1158 mOsmol/kgH2O
Diuresis Average [3]: 0.0855 mL/min/kg
Excretion Average [3]: 2710 µosm/h/kg
Osmolarity Averag [3]: 503 mOsmol/kgH2O
Diuresis Average [4]: 0.0255 mL/min/kg
Excretion Average [4]: 3077 µosm/h/kg
Osmolarity Averag [4]: 2000 mOsmol/kgH2O
Diuresis Average [5]: 0.13 mL/min/kg
Excretion Average [5]: 2092 µosm/h/kg
Osmolarity Averag [5]: 273 mOsmol/kgH2O
Diuresis Average [6]: 0.0263 mL/min/kg
Excretion Average [6]: 2117 µosm/h/kg
Osmolarity Averag [6]: 1332 mOsmol/kgH2O
Diuresis Average [7]: 0.1742 mL/min/kg
Excretion Average [7]: 2280 µosm/h/kg
Osmolarity Averag [7]: 214 mOsmol/kgH2O
Diuresis Average [8]: 0.0375 mL/min/kg
Excretion Average [8]: 2064 µosm/h/kg
Osmolarity Averag [8]: 937 mOsmol/kgH2O
Diuresis Average [9]: 0.2138 mL/min/kg
Excretion Average [9]: 2046 µosm/h/kg
Osmolarity Averag [9]: 162 mOsmol/kgH2O
Diuresis Average [10]: 0.0457 mL/min/kg
Excretion Average [10]: 1930 µosm/h/kg
Osmolarity Averag [10]: 703 mOsmol/kgH2O
Diuresis Average [11]: 0.3492 mL/min/kg
Excretion Average [11]: 2658 µosm/h/kg
Osmolarity Averag [11]: 136 mOsmol/kgH2O
Diuresis Average [12]: 0.161 mL/min/kg
Excretion Average [12]: 2617 µosm/h/kg
Osmolarity Averag [12]: 283 mOsmol/kgH2O
Diuresis Average [13]: 0.1 mL/min/kg
Excretion Average [13]: 2617 µosm/h/kg
Osmolarity Averag [13]: 455 mOsmol/kgH2O
Diuresis Average [14]: 0.0627 mL/min/kg
Excretion Average [14]: 2838 µosm/h/kg
Osmolarity Averag [14]: 754 mOsmol/kgH2O
